Columns and labels:
[1] = tested on: B16 (murine melanoma) tumors; assay: Fraction of necrosis after calcium electroporation, B16 tumors; type: in vivo, NMRI-Foxn1^nu mice; settings: 168 mM CaCl2, half tumor volume, first days after treatment
Procedure: (§1) LPB, a murine sarcoma cell line, B16, a murine malignant melanoma cell line, MDA-MB231, human a breast cancer cell line, HT29, a human colon cancer cell line, and SW780, a human bladder cancer cell line were used for the in vivo experiment. The cells were tested by rapid MAP27 panel (Taconic, Hudson N.Y.) before use without signs of infection. 2×10^5 cells (B16), 8×10^5 cells (LPB), 2.5×10^6 cells (MDA-MB231), and 5×10^6 cells (HT29 and SW780) in 100 μl PBS were injected subcutaneously in the flank of NMRI-Foxn1^nu mice (Harlan, Indianapolis, Ind.) that were 9-11 weeks old. Mice were randomised at a tumor volume above 85 mm^3 and tumors were treated with injection of isotonic calcium-chloride solution (168 mM CaCI2) and electroporation (8 pulses of 1.0 kv/cm for 100 μs and a frequency of 1 Hz) using a 6 mm plate electrode and a square wave electroporator (CLINIPORATOR®, IGEA, Modena, Italy). Tumor volume was calculated as ab^2n/6, where a is the largest diameter and b is the largest diameter perpendicular to a. The injected volume was half of the tumor volume. […] The fraction of necrosis within the tumor was estimated from HE-sections by stereological point counting using a light microscope, evaluated by a pathologist, blinded with respect to treatment status.
(§2) The difference in fraction of necrosis at different time after treatment was assessed using student's t-test.

[2] = tested on: LPB (murine sarcoma) tumors; assay: Fraction of necrosis after calcium electroporation, LPB tumors; type: in vivo, NMRI-Foxn1^nu mice
Procedure: as §1, §2

[3] = tested on: MDA-MB231 (human breast cancer) tumors; assay: Fraction of tumor necrosis at different calcium concentrations and injection volumes; type: in vivo, NMRI-Foxn1nu mice; settings: electroporation, 7 days
Procedure: MDA-MB231, a human breast cancer cell line was used for the in vivo experiments. The cells were tested by rapid MAP27 panel (Taconic, Hudson N.Y.) before use without signs of infection. Cells were maintained in vitro as described in Example 1. 2.5×10^6 cells/100 μl PBS were injected subcutaneously in the flank of NMRI-Foxn1nu mice (Harlan, Indianapolis, Ind.). Tumor pieces are transplanted twice from donor mice to the flank of nude mice that were 13-19 weeks old. HYPNORM™-DORMICUM™ (fentanyl/fluanisone/midazolam; VetaPharma, Leeds, U K and Roche, Basel, Switzerland) was used for anesthesia complemented with RIMADYL® (Carprofen) (Pfizer ApS, Ballerup, Denmark) as well as lidocaine (Region Hovedstadens Apotek, Herlev, Denmark) in the incision. Mice were randomised at a tumor volume above 85 mm3 and tumors were treated with 1) injection of calcium-chloride solution and electroporation (8 pulses of 1.0 kV/cm for 100 μs and a frequency of 1 Hz) using a 6 mm plate electrode and a square wave electroporator (CLINIPORATOR®, IGEA, Modena, Italy), 2) calcium-free physiological saline injection and electroporation (same parameters as above), 3) injection of calcium-chloride, 4) calcium-free physiological saline injection, or 5) untreated but with needle inserted in the tumor without injection and with electrodes put on the tumor without pulses applied. […] Tumor volume was calculated as ab2n/6, where a is the largest diameter and b is the largest diameter perpendicular to a. The solutions were injected through the side of the firm tumor and the needle was moved around inside the tumor to secure injection all over the tumor. Tumors were removed 7 days after treatment, fixated in formalin (10% neutrally buffered) and paraffin embedded. Subsequently, tissue sections with a thickness of 3 μm were HE-stained according to the routine procedure of the department. The fraction of necrosis within the tumor was estimated from HE-sections using a light microscope, evaluated by a pathologist, blinded with respect to treatment status.

[4] = tested on: H69 (human small cell lung cancer) tumors; assay: Histology, fraction of necrosis in H69 tumors; type: in vivo, NMRI-Foxn1^nu mice
Procedure: At an average tumor size of 6.1 mm (range 5.8-6.6 mm) in largest diameter, the tumors are treated with 168 mM CaCl2 injection and electroporation as described in Example 3. Tumors are removed at skin level before treatment, 2 hours, 1, 2 and 6 days after treatment, fixated in formalin (10% neutrally buffered) and paraffin embedded. Subsequently, tissue sections with a thickness of 3 μm are HE-stained according to the routine procedure of the department. The fraction of necrosis within the tumor is estimated from HE-sections by stereological point counting using a light microscope, evaluated by a pathologist, blinded with respect to treatment status.
The difference in fraction of necrosis is assessed using one-way ANOVA with post least-squares-means test with Bonferroni correction for multiple comparisons.

tumor on the heel joint = assay: Case study, calcium electroporation of canine tumor; type: in vivo, dog; settings: 168 mM calcium chloride, 50% of tumor volume, 11 days after treatment
Procedure: A seven year old Danish Pointer dog with a tumor on the heel joint was treated with calcium electroporation. The tumor was injected with 168 mM calcium chloride solution in a total volume equivalent to 50% of the tumor volume calculated as ab^2n/6, where “a” is the largest diameter of the tumor and “b” is the largest diameter perpendicular to “a”. The calcium chloride solution was injected throughout the tumor to secure an even distribution of calcium in the tumor. After the calcium injection the tumor was electroporated (8 pulses of […] at 1.0 kV/cm and 1 Hz) using a needle electrode and a square wave electroporator (CLINIPORATOR®, IGEA, Modena, Italy). The tumor was photographed before and after the treatment.

[5] = tested on: MDA-MB231 (human breast cancer) tumors; assay: Fraction of necrosis after calcium electroporation, MDA-MB231 tumors; type: in vivo, NMRI-Foxn1^nu mice
Procedure: as §1, §2

[6] = 168 mM CaCl2, half tumor volume, electroporation, first days after treatment

## [Ca+2].[Cl-].[Cl-] [calcium chloride]
[1]
  fraction of necrosis in tumors, course: progressive necrosis
[2]; [6]
  fraction of necrosis in tumors, course: progressive necrosis
[2]; 6 days after the treatment
  tumor re-growth: re-growth
[3]; 100 mM to 500 mM calcium, constant injection volume 50% of tumor volume
  fraction of necrosis in tumors: higher than the fraction of necrosis in untreated tumors
[3]; 168 mM calcium
  injection volume with highest fraction of necrosis: 40 % of the tumor volume
[3]; injection volumes 20% to 80% of tumor volume, constant 168 mM calcium
  fraction of necrosis in tumors: higher than the fraction of necrosis in untreated tumors
[4]; 168 mM CaCl2 with electroporation, 2 hours to 6 days
  fraction of necrosis in tumors, course: progressive necrosis
[4]; 6 days post treatment
  fraction of necrosis in tumors: complete
Tumor on the heel joint
  necrosis of tumor: clinical signs of necrosis
  tumor size (photos): reduced in size
[5]; [6]
  fraction of necrosis in tumors, course: progressive necrosis
[5]; 6 days after the treatment
  tumor re-growth: re-growth

Source: patent US9943599B2, “Therapeutic applications of calcium electroporation to effectively induce tumor necrosis” (Herlev Hospital, priority 2011, dated 2018)
